Source: patent US20240327412A1, “FACTOR XIIA INHIBITORS” (KALVISTA PHARMACEUTICALS LIMITED, priority 2021, published 2024)

Key:
Assay type in all cases: biochemical
Plasma Kallikrein = target: T1, Plasma Kallikrein (Homo sapiens, UniProt P03952); test: Related protease inhibition: Plasma Kallikrein (fluorogenic substrate at Km); settings: class symbols per Table 18, read-out: IC50 (human PKal)
T1 construct: FXIIa converts plasma prekallikrein (PK) to plasma kallikrein (PKa)
In short: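 Percent activity is derived from the linear fluorescence increase per minute, measured over 5 min at 25° C. IC50 marks 50% inhibition of uninhibited activity.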

Thrombin = Thrombin (Homo sapiens, UniProt P00734); test: Related protease inhibition: Thrombin (fluorogenic substrate at Km); settings: class symbols per Table 18
Method: (§1) In vitro inhibition of related proteases was determined using an IC50 assay based on standard literature methods (see e.g. Shori et al., Biochem. Pharmacol., 1992, 43, 1209; Bouckaert et al., European Journal of Medicinal Chemistry 110 (2016) 181). Human serine protease enzyme Plasma Kallikrein, KLK1, FXa, Plasmin, Thrombin and Trypsin were assayed for enzymatic activity using an appropriate fluorogenic substrate at Km concentration, FXIa at fixed substrate concentration of 100 μM and various concentrations of the test compound. Protease activity was measured by monitoring the accumulation of liberated fluorescence from the substrate over 5 min at 25° C. The linear rate of fluorescence increase per minute was expressed as percentage (%) activity. IC50 values were calculated as the concentration of inhibitor giving 50% inhibition of the uninhibited enzyme activity (100%).

FXa = FXa (Homo sapiens, UniProt P00742); test: Related protease inhibition: FXa (fluorogenic substrate at Km); settings: class symbols per Table 18
FXa, sequence (P00742 235-488 limits assumed): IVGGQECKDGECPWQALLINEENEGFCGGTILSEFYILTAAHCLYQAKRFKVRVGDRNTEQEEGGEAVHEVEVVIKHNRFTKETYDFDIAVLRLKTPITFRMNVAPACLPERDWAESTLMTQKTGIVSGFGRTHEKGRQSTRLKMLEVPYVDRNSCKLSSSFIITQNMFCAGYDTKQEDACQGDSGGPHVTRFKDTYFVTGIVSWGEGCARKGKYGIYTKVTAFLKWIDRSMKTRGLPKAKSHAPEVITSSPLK
FXa, sequence (P00742 41-179 partner limits assumed): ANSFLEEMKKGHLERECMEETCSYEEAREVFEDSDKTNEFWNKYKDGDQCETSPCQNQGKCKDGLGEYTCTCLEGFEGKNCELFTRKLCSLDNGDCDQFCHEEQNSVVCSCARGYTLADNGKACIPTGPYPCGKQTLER
Method: as §1

KLK1 = KLK1 (Homo sapiens, UniProt P06870); test: Related protease inhibition: KLK1 (fluorogenic substrate at Km); settings: class symbols per Table 18
KLK1, sequence (P06870 25-262): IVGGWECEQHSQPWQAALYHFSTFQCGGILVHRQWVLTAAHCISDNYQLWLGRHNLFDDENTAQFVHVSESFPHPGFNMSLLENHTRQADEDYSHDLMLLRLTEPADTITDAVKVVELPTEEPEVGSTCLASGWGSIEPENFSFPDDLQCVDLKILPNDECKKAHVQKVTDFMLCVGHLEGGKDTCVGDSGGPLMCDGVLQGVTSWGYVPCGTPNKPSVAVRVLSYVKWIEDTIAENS
Method: as §1

Human Factor XIIa = target: T2, Human Factor XIIa (Homo sapiens, UniProt P00748); test: Determination of FXIIa inhibition (fluorogenic substrate H-DPro-Phe-Arg-AFC, IC50 assay); settings: substrate at Km concentration, 25° C.; category scale; read-out: Human FXII IC50 (nm)
T2 construct: Proteolytic cleavage of FXII to heavy and light chains of FXIIa dramatically increases catalytic activity; purchased Enzyme Research Laboratories
T2 sequence (P00748 373-615 limits assumed): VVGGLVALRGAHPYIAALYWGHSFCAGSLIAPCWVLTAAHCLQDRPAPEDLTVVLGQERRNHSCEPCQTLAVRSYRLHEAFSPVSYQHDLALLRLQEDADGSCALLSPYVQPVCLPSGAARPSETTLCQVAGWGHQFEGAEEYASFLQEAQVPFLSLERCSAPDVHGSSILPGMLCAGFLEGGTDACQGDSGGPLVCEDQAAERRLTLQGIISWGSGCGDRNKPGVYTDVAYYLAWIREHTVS
T2 sequence (P00748 20-372 partner limits assumed): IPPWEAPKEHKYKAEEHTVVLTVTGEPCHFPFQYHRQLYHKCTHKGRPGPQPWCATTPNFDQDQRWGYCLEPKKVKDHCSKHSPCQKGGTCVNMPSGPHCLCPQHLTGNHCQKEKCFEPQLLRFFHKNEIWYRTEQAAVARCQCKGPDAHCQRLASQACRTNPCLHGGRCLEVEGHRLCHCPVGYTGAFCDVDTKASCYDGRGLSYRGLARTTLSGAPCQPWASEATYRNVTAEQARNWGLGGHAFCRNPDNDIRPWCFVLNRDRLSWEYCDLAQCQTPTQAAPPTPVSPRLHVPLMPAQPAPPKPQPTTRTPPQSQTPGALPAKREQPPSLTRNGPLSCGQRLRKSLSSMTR
In short: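 Human FXIIa incubated at 25° C. with fluorogenic H-DPro-Phe-Arg-AFC at its Km concentration plus varying compound levels. Linear fluorescence increase over 5 min taken as % activity; IC50 is concentration halving uninhibited activity.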

T1 sequence (P03952 391-638 limits assumed): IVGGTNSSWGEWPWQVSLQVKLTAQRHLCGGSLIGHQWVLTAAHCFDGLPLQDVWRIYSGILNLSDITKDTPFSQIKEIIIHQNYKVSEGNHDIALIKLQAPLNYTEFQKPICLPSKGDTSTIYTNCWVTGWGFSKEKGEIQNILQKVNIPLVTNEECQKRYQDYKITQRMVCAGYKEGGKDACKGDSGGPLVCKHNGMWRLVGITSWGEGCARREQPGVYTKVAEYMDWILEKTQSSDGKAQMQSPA
T1 sequence (P03952 20-390 partner limits assumed): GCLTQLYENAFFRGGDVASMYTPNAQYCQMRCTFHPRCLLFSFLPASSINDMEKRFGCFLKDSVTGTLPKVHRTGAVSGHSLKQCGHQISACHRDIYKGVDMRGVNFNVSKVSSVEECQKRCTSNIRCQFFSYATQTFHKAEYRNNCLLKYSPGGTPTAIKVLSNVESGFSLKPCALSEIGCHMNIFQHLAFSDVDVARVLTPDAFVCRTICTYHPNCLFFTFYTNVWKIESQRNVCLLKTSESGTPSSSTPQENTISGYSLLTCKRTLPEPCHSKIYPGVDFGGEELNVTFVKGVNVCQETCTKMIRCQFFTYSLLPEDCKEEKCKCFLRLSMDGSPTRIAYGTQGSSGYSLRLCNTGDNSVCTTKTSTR

IC50 (Plasma Kallikrein) | IC50 (Thrombin) | IC50 (FXa) | IC50 (KLK1) | IC50 (Human Factor XIIa) | SMILES
> 40 µM | 10 to 40 µM | 10 to 40 µM | 3 to 10 µM | 0.1 to 0.3 µM | Nc1nccc2c(NCC34CC(COc5ccc6nccn6c5)(C3)C4)cccc12 [Example 1017, 5-N-[[3-(Imidazo[1,2-a]pyridin-6-yloxymethyl)-1-bicyclo[1.1.1]pentanyl]methyl]isoquinoline-1,5-diamine]
> 4 µM |  | > 40 µM | 1 to 3 µM | 0.01 to 0.1 µM | Cn1ccc(OCC23CN(C(=O)Oc4ccccc4)C(CNc4cccc5c(N)nccc45)(C2)C3)cc1=O [Example 12008, phenyl 1-(((1-aminoisoquinolin-5-yl)amino)methyl)-4-(((1-methyl-2-oxo-1,2-dihydropyridin-4-yl)oxy)methyl)-2-azabicyclo[2.1.1]hexane-2-carboxylate]
3 to 10 µM |  | 10 to 40 µM | 3 to 10 µM | 0.1 to 0.3 µM | Cc1cn2ccnc2cc1OCC12CCOC(CNc3cccc4c(N)nccc34)(C1)C2 [Example 10920, N5-((5-(((6-methylimidazo[1,2-a]pyridin-7-yl)oxy)methyl)-2-oxabicyclo[3.1.1]heptan-1-yl)methyl)isoquinoline-1,5-diamine]
> 40 µM | 10 to 40 µM | > 40 µM | 3 to 10 µM | 0.01 to 0.1 µM | Nc1nccc2c(NCC34CC(COc5ccc6nccn6c5)(CCO3)C4)cccc12 [Example 10904, N5-((5-((imidazo[1,2-a]pyridin-6-yloxy)methyl)-2-oxabicyclo[3.1.1]heptan-1-yl)methyl)isoquinoline-1,5-diamine]
> 40 µM | 10 to 40 µM | 1 to 3 µM | 3 to 10 µM | 3 to 10 µM | Nc1nccc2c(NCC34CC(COc5cnc6cc[nH]c6c5)(C3)C4)cccc12 [Example 1101, 5-N-[[3-(1H-pyrrolo[3,2-b]pyridin-6-yloxymethyl)-1-bicyclo[1.1.1]pentanyl]methyl]isoquinoline-1,5-diamine]
> 40 µM | 10 to 40 µM | 10 to 40 µM | 3 to 10 µM | 0.01 to 0.1 µM | Nc1nccc2c(NCC34CC(COc5ccn6ccnc6c5)(CO3)C4)cccc12 [Example 6601, 5-N-[[4-(Imidazo[1,2-a]pyridin-7-yloxymethyl)-2-oxabicyclo[2.1.1]hexan-1-yl]methyl]isoquinoline-1,5-diamine]
> 100 µM | 1 to 3 µM | 1 to 3 µM | > 40 µM | 1 to 3 µM | Cc1cc2c(NCC34CC(COc5ccn6ccnc6c5)(C3)C4)ccnc2[nH]1 [Example 1012, N-((3-((Imidazo[1,2-a]pyridin-7-yloxy)methyl)bicyclo[1.1.1]pentan-1-yl)methyl)-2-methyl-1H-pyrrolo[2,3-b]pyridin-4-amine]
> 40 µM | > 40 µM | > 40 µM | 3 to 10 µM | 0.1 to 0.3 µM | Cn1ccc(OCC23COC(CNc4cccc5c(N)nccc45)(C2)C3)cc1=O [Example 6609, 4-((1-(((1-aminoisoquinolin-5-yl)amino)methyl)-2-oxabicyclo[2.1.1]hexan-4-yl)methoxy)-1-methylpyridin-2(1H)-one]
> 40 µM |  | 10 to 40 µM | 3 to 10 µM | 0.01 to 0.1 µM | Cc1cc(OCC23COC(CNc4cccc5c(N)nccc45)(C2)C3)cn2ccnc12 [Example 6617, N5-((4-(((8-methylimidazo[1,2-a]pyridin-6-yl)oxy)methyl)-2-oxabicyclo[2.1.1]hexan-1-yl)methyl)isoquinoline-1,5-diamine]
> 4 µM |  | > 40 µM | 3 to 10 µM | 0.1 to 0.3 µM | Nc1nccc2c(NCC34CC(COc5ccn6ccnc6n5)(CO3)C4)cccc12 [Example 6614, N5-((4-((imidazo[1,2-a]pyrimidin-7-yloxy)methyl)-2-oxabicyclo[2.1.1]hexan-1-yl)methyl)isoquinoline-1,5-diamine]
> 40 µM | > 40 µM | > 40 µM | 1 to 3 µM | 0.3 to 1 µM | Nc1nccc2c(NC[C@H]3C[C@H](COc4ccn5ccnc5c4)C3)cccc12 [Example 4401, N5-((trans-3-((imidazo[1,2-a]pyridin-7-yloxy)methyl)cyclobutyl)methyl)isoquinoline-1,5-diamine]
> 40 µM | > 40 µM | > 40 µM | 3 to 10 µM | 3 to 10 µM | Nc1nccc2c(NCC34CC(C(=O)N5CCn6ccnc6C5)(C3)C4)cccc12 [Example 1016, [3-[[(1-Aminoisoquinolin-5-yl)amino]methyl]-1-bicyclo[1.1.1]pentanyl]-(6,8-dihydro-5H-imidazo[1,2-a]pyrazin-7-yl)methanone]
> 100 µM | 10 to 40 µM | 1 to 3 µM | 10 to 40 µM | 10 to 40 µM | c1cc2cc(NCC34CC(COc5ccn6ccnc6c5)(C3)C4)ccc2cn1 [Example 1011, N-((3-((imidazo[1,2-a]pyridin-7-yloxy)methyl)bicyclo[1.1.1]pentan-1-yl)methyl)isoquinolin-6-amine]
> 40 µM | 10 to 40 µM | 10 to 40 µM | 10 to 40 µM | 3 to 10 µM | Cc1cc2c(NCC34CC(COc5ccn6ccnc6c5)(CO3)C4)ccnc2[nH]1 [Example 6605, N-((4-((imidazo[1,2-a]pyridin-7-yloxy)methyl)-2-oxabicyclo[2.1.1]hexan-1-yl)methyl)-2-methyl-1H-pyrrolo[2,3-b]pyridin-4-amine]
> 40 µM |  | > 4 µM | > 4 µM | 0.01 to 0.1 µM | Cn1ccc(OCC23CC(CNc4cccc5c(N)nccc45)(CN2C(=O)OCc2ccccc2)C3)cc1=O [Example 13001, benzyl 4-(((1-aminoisoquinolin-5-yl)amino)methyl)-1-(((1-methyl-2-oxo-1,2-dihydropyridin-4-yl)oxy)methyl)-2-azabicyclo[2.1.1]hexane-2-carboxylate]
> 40 µM | 10 to 40 µM | 1 to 3 µM | 1 to 3 µM | 0.1 to 0.3 µM | Cc1cn2ccc(OCC34CC(CNc5cccc6c(N)nccc56)(C3)C4)cc2n1 [Example 1006, N5-((3-(((2-Methylimidazo[1,2-a]pyridin-7-yl)oxy)methyl)bicyclo[1.1.1]pentan-1-yl)methyl)isoquinoline-1,5-diamine]
> 40 µM | > 40 µM | > 40 µM | > 40 µM | 1 to 3 µM | Cc1cc2c(NCC34CC(COc5ccn6ccnc6c5)(CCO3)C4)ccnc2[nH]1 [Example 10907, N-[[5-(Imidazo[1,2-a]pyridin-7-yloxymethyl)-2-oxabicyclo[3.1.1]heptan-1-yl]methyl]-2-methyl-1H-pyrrolo[2,3-b]pyridin-4-amine]
> 4 µM |  | > 40 µM | 1 to 3 µM | 0.1 to 0.3 µM | CN1Cc2ccc(OCC34CC(CNc5cccc6c(N)nccc56)(CO3)C4)cc2C1=O [Example 2211, 6-((4-(((1-aminoisoquinolin-5-yl)amino)methyl)-2-oxabicyclo[2.1.1]hexan-1-yl)methoxy)-2-methylisoindolin-1-one]
> 4 µM |  | > 40 µM | 10 to 40 µM | 0.01 to 0.1 µM | CC(=O)N1CC2(COc3ccn(C)c(=O)c3)CC1(CNc1cccc3c(N)nccc13)C2 [Example 12009, 4-((2-acetyl-1-(((1-aminoisoquinolin-5-yl)amino)methyl)-2-azabicyclo[2.1.1]hexan-4-yl)methoxy)-1-methylpyridin-2(1H)-one]
> 4 µM |  | > 40 µM | 10 to 40 µM | 0.01 to 0.1 µM | Cn1ccc(OCC23CNC(CNc4cccc5c(N)nccc45)(C2)C3)cc1=O [Example 12007, 4-((1-(((1-aminoisoquinolin-5-yl)amino)methyl)-2-azabicyclo[2.1.1]hexan-4-yl)methoxy)-1-methylpyridin-2(1H)-one]
